pIC50, pKd, pKi: −log10 of the molar value. Where two headings read alike, the source gives them in different places.
Columns and labels:
NMDA [1] = assay: Radioligand binding, NMDA; settings: Table I; read-out: Radiolig. Kd:Ki
NMDA [2] = assay: Fluorescent ligand binding, NMDA receptor complex; settings: Table I
Experimental: NMDA RECEPTOR COMPLEX LIGAND (spectral shift compound) (PDC 014.041)
(§1) Recommended Assay Conditions:
Incubation buffer: 5 mM Hepes/Tris (pH 7.8 at 25° C.)
Spectra: 335 nm (ex) and 515 nm (em)
(§2) 1. Reconstitution: 10.0 ml of incubation buffer
3. Incubation Time: 2 hours at 25° C.
4. Measure fluorescence intensity: 335 nm (ex) and […]

Peripheral Bzd [3] = assay: Fluorescent ligand binding, peripheral benzodiazepine receptor; settings: Table I
Experimental: PERIPHERAL BENZODIAZEPINE RECEPTOR LIGAND (PDC 018.091)
as §1
Incubation buffer: 50 Nm Tris-Citrate containing […] MgCL2 (pH 7.0 at 4° C.)
(§3) Spectra: 492 nm (ex) and 516 nm (em)
as §2

Peripheral Bzd [4] = assay: Radioligand binding, peripheral benzodiazepine receptor; settings: Table I; read-out: Radiolig. Kd:Ki
Dopamine 2 [5] = assay: Fluorescent ligand binding, dopamine 2 (direct fluorescence measurement); settings: Table I
Dopamine 2 [6] = assay: Radioligand binding, dopamine 2; settings: Table I; read-out: Radiolig. Kd:Ki
Glycine = assay: Fluorescent ligand binding, glycine receptor (strychnine-insensitive); settings: Table I
benzodiazepine receptors = settings: cited from earlier work
Adenosine-A2a [7] = assay: Fluorescent ligand binding, adenosine-A2a receptor; settings: Table I
Experimental: Recommended Assay Conditions for ADENOSINE-A2A RECEPTOR LIGAND (PDC 018.075)
Incubation buffer: 50 mM Tris-HCL containing 10mM MgCl2, (pH 7.4 at 25° C.)
as §3, §2
3. Incubation Time: 90 minutes at 25° C.

Adenosine-A2a [8] = assay: Radioligand binding, adenosine-A2a; settings: Table I; read-out: Radiolig. Kd:Ki
Cannabinoid = assay: Radioligand binding, cannabinoid receptor; settings: Table I; read-out: Radiolig. Kd:Ki
Muscarinic-M1 [9] = assay: Radioligand binding, muscarinic-M1; settings: Table I; read-out: Radiolig. Kd:Ki
Muscarinic-M1 [10] = assay: Fluorescent ligand binding, muscarinic-M1 receptor; settings: Table I
Dopamine 1 [11] = assay: Radioligand binding, dopamine 1; settings: Table I; read-out: Radiolig. Kd:Ki
Dopamine 1 [12] = assay: Fluorescent ligand binding, dopamine 1 (direct fluorescence measurement); settings: Table I
Kappa 1 = assay: Fluorescent ligand binding, kappa1 opioid receptor; settings: result in words
kappa1 opioid receptor = assay: Radioligand ([^3 H]U69,593) binding, kappa1 opioid receptor; settings: read-out: IC50 value versus radioligand binding
[13] = density of binding of the ligand
[14] = centrifugation, read-out: Fluores. Kd
[15] = centri., quench, read-out: Fluores. Kd

For `CN(C)c1cccc2c(S(=O)(=O)NCCCNC(Cc3ccccc3)c3ccccc3)cccc12` (centres unmarked) [PDC 014.041], the pKi (NMDA [1]) was 7.35, the pKd (NMDA [2]; centri., spectral shift, read-out: Fluores. Kd) was 6.00 and the Bmax (NMDA [2]; [13]) was 1.9 pmol/mg prot.

Work on `CCC(C)N(C)C(=O)c1cc2ccccc2c(-c2cc(NC(=O)c3ccc4c(c3)C(=O)OC43c4ccc(O)cc4Oc4cc(O)ccc43)ccc2F)n1` (centres unmarked) [PDC 018.091] yielded a pKd (Peripheral Bzd [3]; [14]) of 7.40, a Bmax (Peripheral Bzd [3]; [13]) of 2.3 pmol/mg prot and a pKi (Peripheral Bzd [4]) of 8.70.

With `CCN(CC)CCNC(=O)c1cc(Cl)c(NC(=O)CCCCCNc2ccc([N+](=O)[O-])c3nonc23)cc1OC` [PDC 014.036] the pKd (Dopamine 2 [5]; [15]) was 6.30, the Bmax (Dopamine 2 [5]; [13]) was 0.13 pmol/mg prot and the pKi (Dopamine 2 [6]) was 7.05.

Work on `O=C(NCCCCCCNc1ccc([N+](=O)[O-])c2nonc12)c1cc(O)c2c(Cl)cc(Cl)cc2n1` [PDC 002.083] yielded a Bmax (Glycine; [13]) of 14.5 pmol/mg prot and a pKd (Glycine; read-out: Fluores. Kd, centri., quench) of 6.12.

For `Cc1nnc2n1-c1ccc(Cl)cc1C(c1ccccc1)=NC2` [Alprazolam, alprazolam], the “specific to nonspecific (signal to noise) binding ratios” value (benzodiazepine receptors; nonequilibrium and equilibrium binding conditions) is listed as “high”, the “affinity for benzodiazepine receptors” value (benzodiazepine receptors; rat brain membranes, saturable and specific) is listed as “low nanomolar affinity” and the “selectivity in vitro for benzodiazepine receptors” value (benzodiazepine receptors; rat brain) is listed as “selective and specific ligand”.

Compound `CCNC(=O)[C@H]1O[C@@H](n2cnc3c(N)nc(NCCc4ccc(CCC(=O)NCCNC(=S)Nc5ccc6c(c5)C(=O)OC65c6ccc(O)cc6Oc6cc(O)ccc65)cc4)nc32)[C@H](O)[C@@H]1O` [PDC 018.075] has a pKd (Adenosine-A2a [7]; [14]) of 7.24, a Bmax (Adenosine-A2a [7]; [13]) of 2.3 pmol/mg prot and a pKi (Adenosine-A2a [8]) of 7.82.

In the case of `NCCCC(=O)O` [GABA], the “effect on [^3 H]alprazolam binding” value (benzodiazepine receptors; rat brain membranes) is given as “enhanced”.

`CCCCC/C=C\C/C=C\C/C=C\C/C=C\CCCC(=O)NCCNc1ccc([N+](=O)[O-])c2nonc12` [PDC 014.063] gave a pKi (Cannabinoid) of 7.28.

`O=[N+]([O-])c1ccc(NCCN2CCOCC2)c2nonc12` [PDC 018.039] showed a pKi (Muscarinic-M1 [9]) of 5.77, a pKd (Muscarinic-M1 [10]; [15]) of 6.01 and a Bmax (Muscarinic-M1 [10]; [13]) of 0.20 pmol/mg prot.

For `O=[N+]([O-])c1ccc(NCCN2CCN(CCCN3c4ccccc4Sc4ccc(C(F)(F)F)cc43)CC2)c2nonc12` [PDC 014.043], the pKi (Dopamine 1 [11]) was 7.96, the pKd (Dopamine 1 [12]; [15]) was 6.72 and the Bmax (Dopamine 1 [12]; [13]) was 69 pmol/mg prot.

For `CN(C(=O)Cc1cc(Cl)c(Cl)cc1NC(=O)CCCNC(=O)c1ccc2c(c1)C(=O)OC21c2ccc(O)cc2Oc2cc(O)ccc21)[C@@H]1CCCC[C@H]1N1CCCC1` [1R,2R-trans-4,5-dichloro-2-(4-fluorescein-5-carboxamido)-n-butaniado)-(N-methyl)-2-(1-pyrrolidnyl)-cyclohexyl)benzeneacetamide], the “Measurement using the fluorescence assay” value (Kappa 1) was “confirmed the radioligand results”, the pIC50 (kappa1 opioid receptor; 1R,2R enantiomer) was 5.49 and the pIC50 (kappa1 opioid receptor; bound in parentheses) was less than 6.00.

Work on `CCCCC/C=C\C/C=C\C/C=C\C/C=C\CCCC(=O)NCCNS(=O)(=O)c1cccc2c(N(C)C)cccc12` [PDC 014.064] yielded a pKi (Cannabinoid) of 7.28.
